# Experimental data published in article PMC8113231 (Nature Communications, 2021).
# Where a SMILES comes first, the peptide text is derived from it. Bridges are numbered along the chain shown (N, C = ends).
# Tests used:
# [1] = system: H5N1/Vac-3; type: cell-based, influenza A virus
# [2] = system: H1N1/Tokyo2619; type: cell-based, influenza A virus
# [3] = system: A/duck/Hokkaido/Vac-3/07 (H5N1/Vac-3); experiment: microbe, parasite or virus in culture; type: cell-based, influenza A virus; conditions: Influenza A virus, H5N1, MDCK; 48–72 h; read-out: EC50, plaque reduction, H5N1/Vac-3
# [4] = system: A/whooper swan/Mongolia/3/05 (H5N1/Mongolia; clade 2.2); experiment: microbe, parasite or virus in culture; type: cell-based; conditions: Influenza A virus, H5N1, MDCK; 48–72 h; read-out: EC50, plaque reduction, H5N1/Mongolia (clade 2.2)
# [5] = system: A/whooper swan/Hokkaido/1/08 (H5N1/Hokkaido; clade 2.3.2.1); experiment: microbe, parasite or virus in culture; type: cell-based; conditions: Influenza A virus, H5N1, MDCK; 48–72 h; read-out: EC50, plaque reduction, H5N1/Hokkaido (clade 2.3.2.1)
# [6] = system: A/Puerto Rico/8/34 (H1N1/PR8); experiment: microbe, parasite or virus in culture; type: cell-based; conditions: Influenza A virus, MDCK; 48–72 h; read-out: EC50, plaque reduction, H1N1/PR8
# [7] = system: A/Tokyo/2619/09 (H1N1/Tokyo2619); experiment: microbe, parasite or virus in culture; type: cell-based; conditions: Influenza A virus, H1N1, MDCK; 48–72 h; read-out: EC50, plaque reduction, H1N1/Tokyo2619
# [8] = system: A/Narita/1/09 (H1N1/Narita); experiment: microbe, parasite or virus in culture; type: cell-based; conditions: Influenza A virus, H1N1, MDCK; 48–72 h; read-out: EC50, plaque reduction, H1N1/Narita
# [9] = system: A/Adachi/2/57 (H2N2); experiment: microbe, parasite or virus in culture; type: cell-based; conditions: Influenza A virus, H2N2, MDCK; 48–72 h; read-out: EC50, plaque reduction, H2N2/Adachi
# [10] = system: A/whooper swan/Hokkaido/1/08 (H5N1); set-up: species or system BALB/c mice; conditions: mouse, in vivo
SMILES,H5N1/Vac-3 virus-mediated RBC membrane fusion [1],H1N1/Tokyo2619 virus-mediated RBC membrane fusion [2],EC50 [3],EC50 [4],EC50 [5],EC50 [6],EC50 [7],EC50 [8],EC50 [9],"Survival outcome, delayed administration [10]"
"CC[C@H](C)[C@@H]1NC(=O)[C@H](C)NC(=O)[C@H](Cc2c[nH]c3ccccc23)NC(=O)[C@H](CCC(=O)O)NC(=O)[C@H](CC(C)C)NC(=O)[C@@H]2CCCN2C(=O)[C@H](Cc2ccccc2)NC(=O)[C@H](CCCCN)NC(=O)[C@H](Cc2c[nH]c3ccccc23)NC(=O)[C@H](CC(N)=O)NC(=O)[C@H](C(C)C)NC(=O)CSC[C@@H](C(=O)NCC(N)=O)NC(=O)[C@H](Cc2ccc(O)cc2)NC(=O)[C@H](CCCNC(=N)N)NC1=O [iHA-12sf, reference compound] ({CH2CO}-VNWKFPLEWAIRYCG-NH2; thioether N-14)",did not reduce RBC membrane fusion,did not reduce RBC membrane fusion,–,–,–,–,–,–,–,–
CC(=O)N[C@H]1[C@H]([C@H](O)[C@H](O)CO)OC(C(=O)O)=C[C@@H]1N=C(N)N [zanamivir],–,–,42 nM,< 10 nM,< 10 nM,115 nM,> 1000 nM,> 1000 nM,60 nM,all mice in the zanamivir-treated group died
